Measurements published in PMC9837035 (Nature Communications, 2023).
Several values for one entry are separate records, joined by “and”; a condition that tells them apart may be missing. Equal entries are not always repeated.

What was measured:
[1] = Mouse acute toxicity assay, body weight; format: in vivo, mice
Method: All animal studies were approved by the Institutional Committee for Animal Experiments of the Institute of Microbial Chemistry, and were performed in accordance with relevant guidelines and regulations to minimize animal suffering. Four-week-old female ICR mice were purchased from Charles River Breeding Laboratories (Yokohama, Japan) and maintained in a specific pathogen-free barrier facility. […] Samples were dissolved in saline containing 10% DMSO and 1% Tween 80 and injected intravenously into mice.

[2] = system: Salmonella typhimurium TA100; test: Ames test, TA100
Method: The Salmonella mutagenicity assay was performed by pre-incubating the test compounds for 20 min with Salmonella typhimurium strains TA98 and TA100, with and without metabolic activation (S9 mixture).
After this time 2 mL of top agar was added to the mixture and poured on to a plate containing minimum agar. The plates were incubated at 37 °C for 49 h and the His ± revertant colonies were counted manually and automatically by a colony counter (Colony analyzer CA-11D systems, System science Co.,Ltd.). The influence of metabolic activation was tested by adding 500 μL of 10% S9 mixture. All experiments were performed in duplicate. […] DMSO served as the negative control (100 μL/plate). The mutagenic index (MI, the average number of revertants per plate divided by the average number of revertants per plate from the negative control) was also calculated for each dose. A sample was considered positive when the MI was equal to or greater than 2 for at least one of the tested doses.

PRMT8 = PRMT8 (Homo sapiens, UniProt Q9NR22); test: biochemical
Sequence of PRMT8 (Q9NR22 whole entry): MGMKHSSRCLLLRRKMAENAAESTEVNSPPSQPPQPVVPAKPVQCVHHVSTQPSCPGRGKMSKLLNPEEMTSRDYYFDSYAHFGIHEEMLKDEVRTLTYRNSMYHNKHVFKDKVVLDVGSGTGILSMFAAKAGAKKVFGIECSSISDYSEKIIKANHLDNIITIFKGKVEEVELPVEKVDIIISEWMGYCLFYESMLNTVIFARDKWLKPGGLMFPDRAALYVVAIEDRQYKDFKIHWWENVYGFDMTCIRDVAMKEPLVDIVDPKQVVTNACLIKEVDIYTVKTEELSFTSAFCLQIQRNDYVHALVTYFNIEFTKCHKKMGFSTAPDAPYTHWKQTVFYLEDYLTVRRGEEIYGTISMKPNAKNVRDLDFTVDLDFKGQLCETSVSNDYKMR

G9a = biological target: T1, G9a (Homo sapiens, UniProt Q96KQ7); test: Radioisotope-based methyltransferase assay (selectivity); conditions: 1 μM SAM
T1 sequence (Q96KQ7 1-1210): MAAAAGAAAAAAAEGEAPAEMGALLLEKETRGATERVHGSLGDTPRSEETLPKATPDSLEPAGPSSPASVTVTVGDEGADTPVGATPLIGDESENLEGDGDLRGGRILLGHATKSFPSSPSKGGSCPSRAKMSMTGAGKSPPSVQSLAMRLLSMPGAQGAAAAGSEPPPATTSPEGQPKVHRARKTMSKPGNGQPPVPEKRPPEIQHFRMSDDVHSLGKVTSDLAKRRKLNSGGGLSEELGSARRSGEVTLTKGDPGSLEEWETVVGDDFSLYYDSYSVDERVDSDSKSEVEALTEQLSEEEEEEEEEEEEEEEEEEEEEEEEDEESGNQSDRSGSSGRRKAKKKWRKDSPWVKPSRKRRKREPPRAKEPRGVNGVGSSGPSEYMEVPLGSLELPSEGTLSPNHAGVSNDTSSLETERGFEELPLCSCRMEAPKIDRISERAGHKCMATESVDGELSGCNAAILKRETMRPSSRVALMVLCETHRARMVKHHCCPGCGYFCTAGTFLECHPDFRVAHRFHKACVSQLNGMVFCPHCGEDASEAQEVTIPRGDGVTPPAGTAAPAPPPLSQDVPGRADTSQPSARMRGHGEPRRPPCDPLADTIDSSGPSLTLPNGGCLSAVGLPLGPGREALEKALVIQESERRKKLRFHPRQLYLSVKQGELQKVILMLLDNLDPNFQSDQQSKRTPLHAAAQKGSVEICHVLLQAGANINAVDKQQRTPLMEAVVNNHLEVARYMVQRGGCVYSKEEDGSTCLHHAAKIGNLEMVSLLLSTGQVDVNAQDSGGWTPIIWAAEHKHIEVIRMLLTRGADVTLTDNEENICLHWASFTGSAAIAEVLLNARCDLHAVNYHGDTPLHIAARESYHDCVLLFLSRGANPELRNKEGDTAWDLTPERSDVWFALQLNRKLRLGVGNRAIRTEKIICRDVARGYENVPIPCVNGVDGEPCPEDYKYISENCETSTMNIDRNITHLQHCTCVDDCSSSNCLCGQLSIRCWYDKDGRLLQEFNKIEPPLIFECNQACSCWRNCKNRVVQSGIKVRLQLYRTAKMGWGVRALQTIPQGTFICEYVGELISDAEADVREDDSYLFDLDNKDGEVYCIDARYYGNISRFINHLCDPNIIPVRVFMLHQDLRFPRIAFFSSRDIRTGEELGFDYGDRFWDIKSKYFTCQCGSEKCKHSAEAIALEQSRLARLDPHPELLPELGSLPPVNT

## Cc1c(C(=O)NC(CCC2CC2)C(=O)Nc2ccc(C#N)cc2)[nH]c2c1C(=O)CC(C)(C)C2 (stereo not shown) [RK-701]
[1]; 12.5 mg/kg, Day0
  The body weight of individual mice: 24.94 g
[1]; 12.5 mg/kg, Day1
  The body weight of individual mice: 24.39 g
[1]; 12.5 mg/kg, Day3
  The body weight of individual mice: 26.32 g and 24.79 g
[1]; 12.5 mg/kg, Day5
  The body weight of individual mice: 26.12 g and 25.27 g and 26.24 g
[1]; 12.5 mg/kg, Day7
  The body weight of individual mice: 26.84 g and 25.44 g and 25.63 g
[1]; 12.5 mg/kg, Day9
  The body weight of individual mice: 26.98 g and 26.32 g and 26.65 g
[1]; 12.5 mg/kg, Day11
  The body weight of individual mice: 27.95 g and 26.07 g and 25.28 g
[1]; 12.5 mg/kg, Day14
  The body weight of individual mice: 27.71 g and 26.81 g and 27.50 g
[1]; 25 mg/kg, Day0
  The body weight of individual mice: 23.49 g and 24.32 g and 24.36 g
[1]; 25 mg/kg, Day1
  The body weight of individual mice: 23.24 g and 25.05 g and 21.93 g
[1]; 25 mg/kg, Day2
  The body weight of individual mice: 24.39 g and 26.13 g and 23.16 g
[1]; 25 mg/kg, Day3
  The body weight of individual mice: 24.09 g and 26.66 g and 23.50 g
[1]; 25 mg/kg, Day4
  The body weight of individual mice: 24.79 g and 27.09 g and 24.50 g
[1]; 25 mg/kg, Day5
  The body weight of individual mice: 25.11 g and 26.53 g and 25.43 g
[1]; 25 mg/kg, Day7
  The body weight of individual mice: 25.92 g and 26.25 g and 25.57 g
[1]; 25 mg/kg, Day9
  The body weight of individual mice: 25.69 g and 26.57 g and 26.31 g
[1]; 25 mg/kg, Day11
  The body weight of individual mice: 26.68 g and 27.09 g and 27.51 g
[1]; 25 mg/kg, Day14
  The body weight of individual mice: 26.24 g and 26.26 g and 28.11 g
[1]; 50 mg/kg, Day0
  The body weight of individual mice: 22.18 g and 23.36 g and 23.10 g
[1]; 50 mg/kg, Day1
  The body weight of individual mice: 22.71 g and 22.55 g and 24.93 g
[1]; 50 mg/kg, Day2
  The body weight of individual mice: 23.39 g and 22.67 g and 25.00 g
[1]; 50 mg/kg, Day3
  The body weight of individual mice: 24.41 g and 22.89 g and 25.00 g
[1]; 50 mg/kg, Day4
  The body weight of individual mice: 24.33 g and 23.75 g and 26.48 g
[1]; 50 mg/kg, Day5
  The body weight of individual mice: 24.37 g and 24.57 g and 26.83 g
[1]; 50 mg/kg, Day7
  The body weight of individual mice: 25.33 g and 23.96 g and 27.23 g
[1]; 50 mg/kg, Day9
  The body weight of individual mice: 25.95 g and 24.94 g and 26.92 g
[1]; 50 mg/kg, Day11
  The body weight of individual mice: 26.83 g and 25.42 g and 28.13 g
[1]; 50 mg/kg, Day14
  The body weight of individual mice: 27.45 g and 26.37 g and 28.85 g
[1]; 100 mg/kg, Day0
  The body weight of individual mice: 22.92 g and 23.08 g and 22.86 g
[1]; 100 mg/kg, Day1
  The body weight of individual mice: 21.12 g and 23.93 g and 21.40 g
[1]; 100 mg/kg, Day2
  The body weight of individual mice: 22.69 g and 24.09 g and 22.95 g
[1]; 100 mg/kg, Day3
  The body weight of individual mice: 23.07 g
[1]; mouse, in vivo, iv
  acute toxicity, body weight: no significant body weight loss
[2]; TA100, + S9, base pair substitution mutation, 4.88 μg/plate
  Number of reverants/plate: 107 and 119
[2]; TA100, + S9, base pair substitution mutation, 19.5 μg/plate
  Number of reverants/plate: 117 and 120
[2]; TA100, + S9, base pair substitution mutation, 78.1 μg/plate
  Number of reverants/plate: 117 and 128
[2]; TA100, + S9, base pair substitution mutation, 313 μg/plate
  Number of reverants/plate: 97 and 127
[2]; TA100, + S9, base pair substitution mutation, 1250* μg/plate
  Number of reverants/plate: 98 and 121
[2]; TA100, + S9, base pair substitution mutation, 2500* μg/plate
  Number of reverants/plate: 117 and 90
[2]; TA100, + S9, base pair substitution mutation, 5000* μg/plate
  Number of reverants/plate: 111 and 110
[2]; TA100, +S9, 4.88 μg/plate
  Number of revertants/plate: 113
[2]; TA100, +S9, 19.5 μg/plate
  Number of revertants/plate: 119
[2]; TA100, +S9, 78.1 μg/plate
  Number of revertants/plate: 123
[2]; TA100, +S9, 313 μg/plate
  Number of revertants/plate: 112
[2]; TA100, +S9, 1250 μg/plate, insoluble material
  Number of revertants/plate: 110
[2]; TA100, +S9, 2500 μg/plate, insoluble material
  Number of revertants/plate: 104
[2]; TA100, +S9, 5000 μg/plate, insoluble material
  Number of revertants/plate: 111
[2]; TA100, - S9, base pair substitution mutation, 4.88 μg/plate
  Number of reverants/plate: 110 and 135
[2]; TA100, - S9, base pair substitution mutation, 19.5 μg/plate
  Number of reverants/plate: 102 and 108
[2]; TA100, - S9, base pair substitution mutation, 78.1 μg/plate
  Number of reverants/plate: 90 and 106
[2]; TA100, - S9, base pair substitution mutation, 313 μg/plate
  Number of reverants/plate: 125 and 110
[2]; TA100, - S9, base pair substitution mutation, 1250* μg/plate
  Number of reverants/plate: 99 and 94
[2]; TA100, - S9, base pair substitution mutation, 2500* μg/plate
  Number of reverants/plate: 98 and 108
[2]; TA100, - S9, base pair substitution mutation, 5000* μg/plate
  Number of reverants/plate: 93 and 98
[2]; TA100, -S9, 4.88 μg/plate
  Number of revertants/plate: 123
[2]; TA100, -S9, 19.5 μg/plate
  Number of revertants/plate: 105
[2]; TA100, -S9, 78.1 μg/plate
  Number of revertants/plate: 98
[2]; TA100, -S9, 313 μg/plate
  Number of revertants/plate: 118
[2]; TA100, -S9, 1250 μg/plate, insoluble material
  Number of revertants/plate: 97
[2]; TA100, -S9, 2500 μg/plate, insoluble material
  Number of revertants/plate: 103
[2]; TA100, -S9, 5000 μg/plate, insoluble material
  Number of revertants/plate: 96
[2]; TA100, regardless of metabolic activation
  mutagenicity: no mutagenicity
PRMT8
  IC50: > 100 µM
G9a
  IC50: 23 nM
